US10034886B2, “GLP-1 receptor modulators” (Celgene International II SÀRL, priority 2014, dated 2018)
pEC50: −log10 of the molar value.

What follows are molecules tested against T1, GLP-1R (Homo sapiens, UniProt P43220) (assay: EC20 GLP-1(9-36) PAM cAMP assay: dose response of compound in the presence of fixed concentration of GLP-1(9-36)). Conditions: GLP-1R CRE-bla CHO-K1 cells, compound dose response with fixed concentration of GLP-1(9-36), read-out: EC20 GLP-1(9-36) PAM EC50.
T1 construct: host or cells: GLP-1R CRE-bla CHO-K1 cells
T1 sequence (P43220 24-463): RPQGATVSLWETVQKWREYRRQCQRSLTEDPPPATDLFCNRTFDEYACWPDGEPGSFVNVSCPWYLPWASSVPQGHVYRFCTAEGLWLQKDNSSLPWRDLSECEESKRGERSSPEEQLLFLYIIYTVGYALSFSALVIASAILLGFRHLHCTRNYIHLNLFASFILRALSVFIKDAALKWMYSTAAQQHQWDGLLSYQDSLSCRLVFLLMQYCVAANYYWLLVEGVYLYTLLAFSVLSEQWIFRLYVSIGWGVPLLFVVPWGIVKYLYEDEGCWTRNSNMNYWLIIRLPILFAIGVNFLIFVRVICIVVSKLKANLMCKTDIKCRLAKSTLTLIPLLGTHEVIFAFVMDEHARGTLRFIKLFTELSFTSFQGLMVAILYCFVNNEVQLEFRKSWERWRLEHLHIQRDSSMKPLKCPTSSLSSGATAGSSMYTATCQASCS
T1 sequence (P01275 100-127 partner limits assumed): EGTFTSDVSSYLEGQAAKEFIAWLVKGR
Type: cell-based
Outline: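 GLP-1R CRE-bla CHO-K1 cells treated 30 min at 37 °C with 12-point compound dose response plus fixed EC20 GLP-1(9-36), with IBMX, in HBSS/HEPES/0.1% BSA pH 7.4. Total cAMP measured by luminescent detection against standard curve; EC50 and Emax from non-linear regression.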

pEC50	Compound
> 6.10	CCC[C@H]1CC[C@H](C2CCN(c3cnc(-c4ccc(C[C@H](NC(=O)c5ccc(C(C)(C)C)s5)C(=O)NC(CCN)C(=O)O)cc4)nc3)CC2)CC1 (stereo partly shown) [Compound 1471]
> 6.10	CCC[C@H]1CC[C@H](C2CCN(c3cnc(-c4ccc(C[C@H](NC(=O)c5ccc(C(C)(C)C)s5)C(=O)N5CC(C(=O)O)C5)cc4)nc3)CC2)CC1 [Compound 1413, 1-((S)-2-(5-(tert-butyl)thiophene-2-carboxamido)-3-(4-(5-(4-((1s,4r)-4-propylcyclohexyl)piperidin-1-yl)pyrimidin-2-yl)phenyl)propanoyl)azetidine-3-carboxylic acid]
> 6.10	Cc1cc(-c2ccc(-c3cnc(-c4ccc(C[C@H](NC(=O)c5ccc(C(C)(C)C)s5)C(=O)N5CC(C(=O)O)C5)cc4)nc3)c(F)c2)ccc1OC(F)(F)F [Compound 1219]
> 6.10	CCC[C@H]1CC[C@H](C2CCN(c3cnc(-c4ccc(C[C@H](NC(=O)c5ccc(C(C)(C)C)s5)C(=O)N[C@H](CC)C(=O)O)cc4)nc3)CC2)CC1 [Compound 1443]
5.00 to 5.30	CC(C)(C)c1ccc(C(=O)N[C@@H](Cc2ccc(-c3ncc(-c4ccc(OCCN5CCCCC5)cc4)cn3)cc2)C(=O)O)s1 [Compound 1353]
5.00 to 5.30	COc1cc(/C=C/c2cnc(-c3ccc(C[C@H](NC(=O)c4ccc(C(C)(C)C)s4)C(=O)N[C@H](C)C(=O)O)cc3)nc2)cc(OC)c1 [Compound 1259]
> 6.10	CCC[C@H]1CC[C@H](c2ccc(-c3cnc(-c4ccc(C[C@H](NC(=O)c5ccc(C(C)(C)C)s5)C(=O)N[C@H](C)C(=O)O)cc4)nc3)cc2)CC1 [Compound 1265]
5.60 to 6.10	CC(C)CCCOc1ccc(-c2cnc(-c3ccc(C[C@H](NC(=O)c4ccc(OC(C)C)cc4)C(=O)N4CC(C(=O)O)C4)cc3)nc2)cc1 [Compound 1238]
> 6.10	C[C@@H](NC(=O)[C@H](Cc1ccc(-c2ncc(-c3ccc(-c4ccccc4)c(F)c3)cn2)cc1)NC(=O)c1ccc(C(C)(C)C)s1)C(=O)O [Compound 1289]
> 6.10	Cc1ccc(-c2ccc(-c3cnc(-c4ccc(C[C@H](NC(=O)c5ccc(C(C)(C)C)s5)C(=O)N5CC(C(=O)O)C5)cc4)nc3)c(F)c2)cc1 [Compound 1207]
5.30 to 5.60	CCc1ccc(C(=O)N[C@@H](Cc2ccc(-c3ncc(-c4ccc(OCCCC(C)C)cc4)cn3)cc2)C(=O)N2CC(C(=O)O)C2)nc1 [Compound 1245]
> 6.10	CCC[C@H]1CC[C@H](C2CCN(c3cnc(-c4ccc(C[C@H](NC(=O)c5ccc(C(C)(C)C)s5)C(=O)NC5(C(=O)O)CC5)cc4)nc3)CC2)CC1 [Compound 1453]
> 6.10	CCCc1ccc(N2CCN(c3cnc(-c4ccc(C[C@H](NC(=O)c5ccc(C(C)(C)C)s5)C(=O)N5CC(C(=O)O)C5)cc4)nc3)CC2)cc1 [Compound 1511]
5.60 to 6.10	CCC[C@H]1CC[C@H](C2CCN(c3cnc(-c4ccc(C[C@H](NC(=O)c5ccc(OC(C)C)cc5)C(=O)N5CC(C(=O)O)C5)cc4)nc3)CC2)CC1 [Compound 1535]
> 6.10	CCC[C@H]1CC[C@H](C2CCN(c3cnc(-c4ccc(C[C@H](NC(=O)c5ccc(CC(C)C)s5)C(=O)N5CC(C(=O)O)C5)cc4)nc3)CC2)CC1 [Compound 1522]

Same assay, conditions: dose response of compound in presence of fixed concentration of GLP-1(9-36), GLP-1R CRE-bla CHO-K1 cells, read-out: EC20 GLP-1(9-36) PAM EC50

Compound	pEC50
CCCCCCCOc1ccc(-c2cnc(-c3ccc(C[C@H](NC(=O)c4ccc(C(C)(C)C)cc4)C(=O)N[C@@H](CC(=O)N(C)CCN)C(=O)O)cc3)nc2)cc1 [Compound 509]	5.60 to 6.10
CCCCCCCOc1ccc(-c2cnc(-c3ccc(C[C@H](NC(=O)c4ccc(C5CC5)cc4)C(=O)N4CC(C(=O)O)C4)cc3)nc2)cc1 [Compound 1111]	5.60 to 6.10
CCCCCCc1noc(-c2cnc(-c3ccc(C[C@H](NC(=O)c4ccc(C(C)(C)C)cc4)C(=O)NCCC(=O)O)cc3)nc2)n1 [Compound 692]	5.00 to 5.30
COc1cc(-c2cnc(-c3ccc(C[C@H](NC(=O)c4ccc(C(C)(C)C)s4)C(=O)N[C@H](C)C(=O)O)cc3)nc2)ccc1OCc1ccccc1 [Compound 999]	5.30 to 5.60
CC(C)(C)c1ccc(C(=O)N[C@@H](Cc2ccc(-c3ncc(-c4ccc(OCCC5CCCC5)cc4)cn3)cc2)C(=O)N2CC(C(=O)O)C2)s1 [Compound 920]	5.60 to 6.10
C[C@@H](NC(=O)[C@H](Cc1ccc(-c2ncc(-c3cc4ccccc4cc3O)cn2)cc1)NC(=O)c1ccc(C(C)(C)C)s1)C(=O)O [Compound 1008]	5.00 to 5.30
C[C@@H](NC(=O)[C@H](Cc1ccc(-c2ncc(-c3cccc(C(=O)Nc4cccc(F)c4)c3)cn2)cc1)NC(=O)c1ccc(C(C)(C)C)s1)C(=O)O [Compound 1032]	5.60 to 6.10
CC(C)(C)Cc1noc(-c2cnc(-c3ccc(C[C@H](NC(=O)c4ccc(C(C)(C)C)cc4)C(=O)NCCC(=O)O)cc3)nc2)n1 [Compound 744]	5.00 to 5.30
CCCCCCCCc1noc(-c2cnc(-c3ccc(C[C@H](NC(=O)c4ccc(C(C)(C)C)cc4)C(=O)NCCC(=O)O)cc3)nc2)n1 [Compound 755]	5.30 to 5.60
CCCCCCCOc1ccc(-c2cnc(-c3ccc(C[C@H](NC(=O)c4ccc(C(C)(C)C)cc4)C(=O)N4CC[C@@H](C(=O)O)C4)cc3)nc2)cc1 [Compound 588]	5.60 to 6.10
CC(C)(C)CCCOc1ccc(-c2cnc(-c3ccc(C[C@H](NC(=O)c4ccc(C(C)(C)C)s4)C(=O)NC(C(=O)O)C(O)c4ccccc4)cc3)nc2)cc1 (stereo partly shown) [Compound 937]	5.60 to 6.10
CCCCCCCOc1ccc(-c2cnc(-c3ccc(C[C@H](NC(=O)c4ccc(CCC)s4)C(=O)N4CCC[C@H]4C(=O)O)cc3)nc2)cc1 [Compound 1069]	5.60 to 6.10

Further lines, results first:

pEC50	Compound
5.60 to 6.10	CCCCCCCOc1ccc(-c2cnc(-c3ccc(C[C@H](NC(=O)c4ccc(C(C)(C)C)s4)C(=O)N4CC(CCN)C4)cc3)nc2)cc1 [Compound 989]
5.00 to 5.30	CCCCCCCOc1ccc(-c2cnc(-c3ccc(CC(NC(=O)c4ccc(C(C)(C)C)s4)C(=O)NCC4CCN(C)CC4)cc3)nc2)cc1 (stereo not shown) [Compound 430]
5.30 to 5.60	CCCCCCCOc1ccc(-c2cnc(-c3ccc(C[C@H](NC(=O)c4ccc(C(C)(C)C)s4)C(=O)N[C@H](C(=O)O)[C@@H](C)c4ccccc4)cc3)nc2)cc1 [Compound 909]
> 6.10	CCCCCCCOc1ccc(-c2cnc(-c3ccc(C[C@H](NC(=O)c4ccc(C(C)(C)C)s4)C(=O)NC(CCCC)C(=O)O)cc3)nc2)cc1 (stereo partly shown) [Compound 609]
5.00 to 5.30	CCCCCCCOc1ccc(-c2cnc(-c3ccc(C[C@H](NC(=O)c4ccc(C(C)(C)C)s4)C(=O)NC(Cc4ccc(Cl)cc4)C(=O)O)cc3)nc2)cc1 (stereo partly shown) [Compound 615]
5.60 to 6.10	CCCCCCCOc1ccc(-c2cnc(-c3ccc(C[C@H](NC(=O)c4ccc(CC)s4)C(=O)N[C@H](C)C(=O)O)cc3)nc2)cc1 [Compound 839]
5.60 to 6.10	CCCCCCCOc1ccc(-c2cnc(-c3ccc(C[C@H](NC(=O)c4ccc(C(C)(C)C)cc4)C(=O)N[C@H](CN)C(=O)O)cc3)nc2)cc1 [Compound 465]
5.60 to 6.10	CCCCCCCOc1ccc(-c2cnc(-c3ccc(CC(NC(=O)c4ccc(C(C)(C)C)s4)C(=O)NCCCCC(=O)O)cc3)nc2)cc1 (stereo not shown) [Compound 459]
> 6.10	CCCCCCCOc1ccc(-c2cnc(-c3ccc(C[C@H](NC(=O)c4ccc(C(C)(C)C)cc4)C(=O)N[C@@H](CC(=O)NC)C(=O)O)cc3)nc2)cc1 [Compound 477, N^2—((S)-2-(4-(tert-butyl)benzamido)-3-(4-(5-(4-(heptyloxy)phenyl)pyrimidin-2-yl)phenyl)propanoyl)-N^4-methyl-L-asparagine]
5.30 to 5.60	CCCCCCCOc1ccc(-c2cnc(-c3ccc(C[C@@H](NC(=O)c4ccc(C(C)(C)C)cc4)C(=O)NCCC(=O)O)cc3)nc2)cc1 [Compound 433]
5.60 to 6.10	CCCCCCCOc1ccc(-c2cnc(-c3ccc(C[C@H](NC(=O)c4ccc(C(C)(C)C)s4)C(=O)NS(=O)(=O)CC(=O)O)cc3)nc2)cc1 [Compound 434]
5.60 to 6.10	CCCCCCCOc1ccc(-c2cnc(-c3ccc(C[C@H](NC(=O)c4ccc(C(C)(C)C)s4)C(=O)NCCOC)cc3)nc2)cc1 [Compound 386]
5.60 to 6.10	CCCCCCCOc1ccc(-c2cnc(-c3ccc(C[C@H](NC(=O)c4ccc(C(C)(C)C)s4)C(=O)N[C@H](C)C(=O)O)cc3)nc2)c(C)c1 [Compound 790]
> 6.10	CCCCCCCOc1ccc(-c2cnc(-c3ccc(C[C@H](NC(=O)c4ccc(C(C)(C)C)s4)C(=O)N4CC=CC4C(=O)O)cc3)nc2)cc1 (stereo partly shown) [Compound 610]
> 6.10	CCCCCCCOc1ccc(-c2cnc(-c3ccc(C[C@H](NC(=O)c4ccc(C(C)(C)C)s4)C(=O)N[C@@H](CC(=O)O)C(=O)N4CCOCC4)cc3)nc2)cc1 [Compound 533]
> 6.10	CCCCCCCOc1ccc(-c2cnc(-c3ccc(C[C@H](NC(=O)c4ccc(C(C)(C)C)s4)C(=O)N4CCC[C@H]4C(=O)NCCC(=O)O)cc3)nc2)cc1 [Compound 494]
> 6.10	CCCCCCCOc1ccc(-c2cnc(-c3ccc(C[C@H](NC(=O)c4ccc(C(C)(C)C)cc4)C(=O)N[C@@H](CC)C(=O)O)cc3)nc2)cc1 [Compound 499]
> 6.10	CCCCCCCOc1ccc(-c2cnc(-c3ccc(C[C@H](NC(=O)c4ccc(C(C)(C)C)s4)C(=O)NC(C(=O)O)C(O)c4ncccn4)cc3)nc2)cc1 (stereo partly shown) [Compound 913]
> 6.10	CCCCCCCOc1ccc(-c2cnc(-c3ccc(C[C@H](NC(=O)c4ccc(C(C)(C)C)s4)C(=O)N4C[C@H](C#N)C[C@H]4C(=O)O)cc3)nc2)cc1 [Compound 641]
> 6.10	CCCCCCCOc1ccc(-c2cnc(-c3ccc(C[C@H](NC(=O)c4ccc(C(C)(C)C)s4)C(=O)NC(C(=O)O)c4cccs4)cc3)nc2)cc1 (stereo partly shown) [Compound 600]
5.60 to 6.10	CCCCCCCOc1ccc(-c2cnc(-c3ccc(C[C@H](NC(=O)c4ccc(C(C)(C)C)s4)C(=O)N[C@H](CC(=O)NC)C(=O)O)cc3)nc2)cc1 [Compound 663]
5.60 to 6.10	CCCCCCCOc1ccc(-c2cnc(-c3ccc(C[C@H](NC(=O)c4ccc(C(C)(C)CC)cc4)C(=O)N[C@H](C)C(=O)O)cc3)nc2)cc1 [Compound 834]
